{
  "source": "PubChem BioAssay (NCI)",
  "test_in_all_cases": "NCI anticancer screen, dose series, 48 h",
  "key": {"OVCAR-3 ovarian": {"test_system": "OVCAR-3 ovarian"}, "SF-295 CNS": {"test_system": "SF-295 CNS"}, "SK-MEL-28 melanoma": {"test_system": "SK-MEL-28 melanoma"}, "OVCAR-5 ovarian": {"test_system": "OVCAR-5 ovarian"}, "RXF 393 renal": {"test_system": "RXF 393 renal"}, "SK-MEL-5 melanoma": {"test_system": "SK-MEL-5 melanoma"}, "SF-268 CNS": {"test_system": "SF-268 CNS"}, "CAKI-1 renal": {"test_system": "CAKI-1 renal"}, "MOLT-4 leukemia": {"test_system": "MOLT-4 leukemia"}, "SW-620 colon": {"test_system": "SW-620 colon"}, "TK-10 renal": {"test_system": "TK-10 renal"}, "COLO 205 colon": {"test_system": "COLO 205 colon"}, "SF-539 CNS": {"test_system": "SF-539 CNS"}, "M14 melanoma": {"test_system": "M14 melanoma"}, "HOP-92 NSCLC": {"test_system": "HOP-92 NSCLC"}, "CCRF-CEM leukemia": {"test_system": "CCRF-CEM leukemia"}, "RPMI-8226 leukemia": {"test_system": "RPMI-8226 leukemia"}, "IGROV1 ovarian": {"test_system": "IGROV1 ovarian"}, "PC-3 prostate": {"test_system": "PC-3 prostate"}, "A549 NSCLC": {"test_system": "A549 NSCLC"}, "SK-MEL-2 melanoma": {"test_system": "SK-MEL-2 melanoma"}, "KM12 colon": {"test_system": "KM12 colon"}, "NCI-H460 lung": {"test_system": "NCI-H460 lung"}, "NCI/ADR-RES ovarian": {"test_system": "NCI/ADR-RES ovarian"}, "HCC-2998 colon": {"test_system": "HCC-2998 colon"}, "EKVX NSCLC": {"test_system": "EKVX NSCLC"}, "LOX IMVI melanoma": {"test_system": "LOX IMVI melanoma"}, "MDA-MB-231 breast": {"test_system": "MDA-MB-231 breast"}, "HOP-62 NSCLC": {"test_system": "HOP-62 NSCLC"}, "HS 578T breast": {"test_system": "HS 578T breast"}, "MCF7 breast": {"test_system": "MCF7 breast"}, "HL-60(TB) leukemia": {"test_system": "HL-60(TB) leukemia"}, "NCI-H522 lung": {"test_system": "NCI-H522 lung"}, "U251 CNS": {"test_system": "U251 CNS"}, "SNB-19 CNS": {"test_system": "SNB-19 CNS"}, "SR leukemia": {"test_system": "SR leukemia"}, "HT29 colon": {"test_system": "HT29 colon"}, "MALME-3M melanoma": {"test_system": "MALME-3M melanoma"}, "K-562 leukemia": {"test_system": "K-562 leukemia"}, "786-0 renal": {"test_system": "786-0 renal"}, "OVCAR-8 ovarian": {"test_system": "OVCAR-8 ovarian"}, "BT-549 breast": {"test_system": "BT-549 breast"}, "HCT-116 colon": {"test_system": "HCT-116 colon"}, "NCI-H226 lung": {"test_system": "NCI-H226 lung"}, "OVCAR-4 ovarian": {"test_system": "OVCAR-4 ovarian"}, "NCI-H23 lung": {"test_system": "NCI-H23 lung"}, "UACC-62 melanoma": {"test_system": "UACC-62 melanoma"}, "T-47D breast": {"test_system": "T-47D breast"}, "HCT-15 colon": {"test_system": "HCT-15 colon"}, "ACHN renal": {"test_system": "ACHN renal"}, "UO-31 renal": {"test_system": "UO-31 renal"}},
  "note": "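In this assay, cells in 96-well plates receive the compound at five concentrations for 48 hours. Endpoints are linearly interpolated between the surrounding concentrations. Definition used: TGI = concentration required for complete inhibition of growth.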",
  "data": [
    {"smiles": "CC(=O)O[C@H]1C(=O)[C@@]2(C)[C@H]([C@H](OC(=O)c3ccccc3)[C@]3(O)C[C@H](OC(=O)[C@H](O)[C@@H](NC(=O)c4ccccc4)C4CCCCC4)C(C)=C1C3(C)C)[C@]1(OC(C)=O)CO[C@@H]1C[C@@H]2O", "values": [
      {"measurement": "TGI", "setting": "OVCAR-3 ovarian", "value": "< 0.01", "unit": "µM"},
      {"measurement": "TGI", "setting": "SF-295 CNS", "value": 0.0606, "unit": "µM"},
      {"measurement": "TGI", "setting": "SK-MEL-28 melanoma", "value": "> 100", "unit": "µM"},
      {"measurement": "TGI", "setting": "OVCAR-5 ovarian", "value": 0.673, "unit": "µM"},
      {"measurement": "TGI", "setting": "RXF 393 renal", "value": 0.013, "unit": "µM"},
      {"measurement": "TGI", "setting": "SK-MEL-5 melanoma", "value": 14.9, "unit": "µM"},
      {"measurement": "TGI", "setting": "SF-268 CNS", "value": "> 100", "unit": "µM"},
      {"measurement": "TGI", "setting": "CAKI-1 renal", "value": "> 100", "unit": "µM"},
      {"measurement": "TGI", "setting": "MOLT-4 leukemia", "value": "> 51.6", "unit": "µM"},
      {"measurement": "TGI", "setting": "SW-620 colon", "value": "> 100", "unit": "µM"},
      {"measurement": "TGI", "setting": "TK-10 renal", "value": 37.4, "unit": "µM"},
      {"measurement": "TGI", "setting": "COLO 205 colon", "value": "< 0.01", "unit": "µM"},
      {"measurement": "TGI", "setting": "SF-539 CNS", "value": 0.0214, "unit": "µM"},
      {"measurement": "TGI", "setting": "M14 melanoma", "value": 24, "unit": "µM"},
      {"measurement": "TGI", "setting": "HOP-92 NSCLC", "value": 64.1, "unit": "µM"},
      {"measurement": "TGI", "setting": "CCRF-CEM leukemia", "value": "> 62.7", "unit": "µM"},
      {"measurement": "TGI", "setting": "RPMI-8226 leukemia", "value": 19.2, "unit": "µM"},
      {"measurement": "TGI", "setting": "IGROV1 ovarian", "value": "> 61.3", "unit": "µM"},
      {"measurement": "TGI", "setting": "PC-3 prostate", "value": 2.91, "unit": "µM"},
      {"measurement": "TGI", "setting": "A549 NSCLC", "value": "> 100", "unit": "µM"},
      {"measurement": "TGI", "setting": "SK-MEL-2 melanoma", "value": "> 100", "unit": "µM"},
      {"measurement": "TGI", "setting": "KM12 colon", "value": 37.1, "unit": "µM"},
      {"measurement": "TGI", "setting": "NCI-H460 lung", "value": 15.3, "unit": "µM"},
      {"measurement": "TGI", "setting": "NCI/ADR-RES ovarian", "value": 11.4, "unit": "µM"},
      {"measurement": "TGI", "setting": "HCC-2998 colon", "value": 16.4, "unit": "µM"},
      {"measurement": "TGI", "setting": "EKVX NSCLC", "value": "> 100", "unit": "µM"},
      {"measurement": "TGI", "setting": "LOX IMVI melanoma", "value": "> 56.4", "unit": "µM"},
      {"measurement": "TGI", "setting": "MDA-MB-231 breast", "value": 28.6, "unit": "µM"},
      {"measurement": "TGI", "setting": "HOP-62 NSCLC", "value": 1.45, "unit": "µM"},
      {"measurement": "TGI", "setting": "HS 578T breast", "value": "< 0.01", "unit": "µM"},
      {"measurement": "TGI", "setting": "MCF7 breast", "value": 25.9, "unit": "µM"},
      {"measurement": "TGI", "setting": "HL-60(TB) leukemia", "value": "< 0.01", "unit": "µM"},
      {"measurement": "TGI", "setting": "NCI-H522 lung", "value": 0.011, "unit": "µM"},
      {"measurement": "TGI", "setting": "U251 CNS", "value": "> 43", "unit": "µM"},
      {"measurement": "TGI", "setting": "SNB-19 CNS", "value": "> 100", "unit": "µM"},
      {"measurement": "TGI", "setting": "SR leukemia", "value": 25.1, "unit": "µM"},
      {"measurement": "TGI", "setting": "HT29 colon", "value": 17.5, "unit": "µM"},
      {"measurement": "TGI", "setting": "MALME-3M melanoma", "value": 95, "unit": "µM"},
      {"measurement": "TGI", "setting": "K-562 leukemia", "value": "> 51.9", "unit": "µM"},
      {"measurement": "TGI", "setting": "786-0 renal", "value": "> 100", "unit": "µM"},
      {"measurement": "TGI", "setting": "OVCAR-8 ovarian", "value": 98.8, "unit": "µM"},
      {"measurement": "TGI", "setting": "BT-549 breast", "value": "> 100", "unit": "µM"},
      {"measurement": "TGI", "setting": "HCT-116 colon", "value": "> 44.9", "unit": "µM"},
      {"measurement": "TGI", "setting": "NCI-H226 lung", "value": "> 100", "unit": "µM"},
      {"measurement": "TGI", "setting": "OVCAR-4 ovarian", "value": 50.5, "unit": "µM"},
      {"measurement": "TGI", "setting": "NCI-H23 lung", "value": "> 100", "unit": "µM"},
      {"measurement": "TGI", "setting": "UACC-62 melanoma", "value": 52.2, "unit": "µM"},
      {"measurement": "TGI", "setting": "T-47D breast", "value": 93.7, "unit": "µM"},
      {"measurement": "TGI", "setting": "HCT-15 colon", "value": "> 51.1", "unit": "µM"},
      {"measurement": "TGI", "setting": "ACHN renal", "value": "> 72.8", "unit": "µM"},
      {"measurement": "TGI", "setting": "UO-31 renal", "value": 36.2, "unit": "µM"}
    ]}
  ]
}
